Read-outs that look alike come from different tables or passages of the source.
Tests used:
[1] = system: wild-type male cynomolgus monkeys; assay: Reduction of blood C26:0 LPC in vivo in cynomolgus monkeys; set-up: species or system cynomolgus monkey; conditions: 30 mg/kg PO QD, after 7 days of dosing
Procedure: A LC-MS/MS method of analyzing Lysophosphatidylcholine (LPC) in whole blood (dried blood spot card, DBS) and brain tissue samples was developed for measuring the abundance of saturated C16, C18, C20, C22, C24 and C26 LPC in DBS and brain samples. Whole blood was collected with Whatman DMPK-C DBS card at an approximate volume of 20 μL at each time point. Brain tissue was collected at the end point of the study. Samples were prepared and LC-MS/MS analysis was performed as described below.
For DBS bioanalysis, the DBS card was punched at 3 mm in diameter using a semi-automated DBS card puncher. To each punched spot 200 μL of pure methanol was added. […]
The supernatant obtained from each sample was injected into a LC-MS/MS system (Agilent Technologies, Santa Clara, Calif. and Applied Biosystems, Framingham, Mass.) for analysis. […] LPCs were detected by an AB Sciex API-6500 triple quadrupole MS with electrospray ionization in the mode of multiple reaction monitoring. Ions of Q1 were monitored at m/z of 496.6, 524.6, 552.6, 580.6, 608.6 and 636.6 for LPC 16:0, LPC 18:0, LPC 20:0, LPC 22:0, LPC 24:0 and LPC 26:0, respectively. […] C16:0 LPC levels were expressed as a concentration. […]
The vehicle used was 2% TPGS and Compound 87 doses were prepared in 2% TPGS. […] DBS cards were stored at 4° C. until they could be analyzed for VLCFAs. DBS samples were prepared and analyzed using LC-MS/MS as described above.

[2] = Body weight and adverse effects during treatment in the thermal sensitivity studies; assay type: in vivo, mouse; conditions: ABCD1 KO mice, prophylactic (5 or 20 mg/kg) and therapeutic (32 or 64 mg/kg) PO QD experiments
Procedure: For the prophylactic study, mice were tested beginning at 10 months of age (before the loss of pain sensitivity) using doses of either 5 or 20 mg/kg. For the therapeutic study, mice were tested beginning at 18 months of age, after there was already a significant loss of pain sensitivity, using doses of either 32 or 64 mg/kg. […] The Plantar test (using a Hargreaves apparatus) was used and measured the latency to respond to a thermal stimulus using the following protocol. An individual mouse was placed into an individual compartment with a glass floor for about 10-15 minutes until they were settled. Each individual mouse was given three trials with an infrared source on each hind paw (alternated hind paws each time, and waited 5 minutes between each trial). The infrared source was placed under the glass floor and was positioned by the operator directly beneath the hind paw. A trial was commenced by depressing a key/button which turned on the infrared source and started a digital timer. When a response was observed (paw withdrawal), the key/button was released and the latency to respond was recorded (in seconds).

[3] = Blood exposure (AUC) in the 28-day oral dosing study in mice; assay type: in vivo; conditions: ABCD1 knockout (KO), mouse, whole blood (dried blood spots), read-out: Blood area under the concentration time-curve (AUC)
[4] = Metabolic intrinsic clearance in mouse hepatocytes; assay type: in vitro ADME, CD-1 mouse; conditions: CD-1, cryopreserved hepatocytes in suspension, pH 7.5, 0.5 million cells/mL, incubation for 4 hours
Procedure: The metabolic intrinsic clearance (CLint) of Compound 87 was determined in human, monkey, dog, rat, and mouse hepatocytes. Cryopreserved human hepatocytes (Lot Hue50c), monkey hepatocytes (cynomolgus; Lot Cy328), dog hepatocytes (beagle, Lot Db235), rat hepatocytes (Sprague Dawley; NNH), and mouse hepatocytes (CD-1; Lot Mc522) were obtained from ThermoFisher (Paisley, UK). In separate experiments, compound 87 (1 μM) was incubated with hepatocytes from each species (0.5 million cells/mL, suspension) in Dulbecco's Modified Eagle's Medium (DMEM) supplemented with 4-(2-Hydroxyethyl)piperazine-1-ethanesulfonic acid (HEPES, 9 mM) and fructose (2.2 mM) (pH 7.5). Samples were quenched with acetonitrile and analyzed by LC-MS/MS. The mean CLint for Compound 87 in human, monkey, dog, rat, and mouse hepatocytes after incubation for 4 hours was determined to be ≤2.5, ≤2.5, 7.2, 23.6 and 10.7 μL/min/million cells. Based on these date, Compound 87 was low to moderately metabolized in hepatocytes in mouse, rat, dog, monkey, and human, and the rank order of stability at […] was approximately human>monkey>dog>mouse>rat. […] The metabolic stability of Compound 87 was not expected.

- AUC ([3]; 4 mg/kg PO QD): 1950 ng·h/mL
- AUC ([3]; 8 mg/kg PO QD): 3490 ng·h/mL
- hepatocyte CLint at 1 μM [4]: 10.7 µL/min/1e6 cells
Structure (SMILES): O=C(Nc1ccn(-c2ccnc(F)c2)n1)C1(c2ccccc2F)CC1 [Compound 87, 1-(2-fluorophenyl)-N-[1-(2-fluoro-4-pyridyl)pyrazol-3-yl]cyclopropanecarboxamide]
- reduction in blood C26:0 LPC [1]: ~50%
- body weight and adverse effects during treatment [2]: did not have a significant drop in body weight or any other noticeable adverse effect

Source: patent US20180251431A1 (VERTEX PHARMACEUTICALS INCORPORATED, priority 2016, published 2018)
